Source: patent publication US20210369853A1, “TARGETED PROTEASE DEGRADATION PLATFORM” (EUBULUS BIOTHERAPEUTICS INC., priority 2018, published 2021)
Like-named read-outs stand apart in the source and are kept apart here.

Tests used:
Format in all cases: cell-based
[1] = test system: Human cervical adenocarcinoma cells Hela; assay: Cell proliferation experiment (Alarm blue, 72 h, EC50); settings: Homo sapiens
Outline: (§1)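 Log-phase cells, passaged at least 2 generations, were seeded in 96-well plates and exposed to test compound in complete medium as a 5-fold dilution series in duplicate for 72 h. Fluorescence was read by Alamar blue and EC50 fitted to a four-parameter curve (Min, Max, Slope).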

[2] = test system: Human Monocytic Leukemia MV4-11; assay: as above
Outline: as §1

[3] = test system: Human Colon Cancer HCT-116; assay: as above; settings: Homo sapiens, HCT-116; HCT116 cells
Outline: as §1

BRD4 = molecular target: T1, BRD4 (Homo sapiens, UniProt O60885); assay: Western blot, protein degradation (DC50)
T1 construct: endogenous in cells
Method: (§2) Cells were treated with the compound for a period of time, after that the cells were collected by centrifugation. After washing with PBS, the cells were lysed by adding RIPA buffer; the cell lysate were added to the loading buffer and then appropriate volume were taken and slowly added to the corresponding wells of the gel plate, and run the SDS-PAGE gel (4%-12%). After running the gel, transferred to the PVDF membrane and sealed with 5% skimmed milk powder at room temperature for 1 hour. The membrane was placed in the primary antibody diluted with 5% skimmed milk powder and shaked slowly overnight at 4° C. After incubation with primary antibody, the membrane was washed 3 times using a TBST shaker; added secondary antibody diluted with 5% skimmed milk powder corresponding to the primary antibody, and shaked slowly at room temperature for 1 hour. After incubation with secondary antibody, the membrane was washed 3 times using the TBST shaker again. The PVDF membrane was flatted in the cassette, the strip was evenly infiltrated with ECL developer solution, and placed in ChemDoc XRS+ gel imager for taking pictures. The intensity of protein bands was analyzed quantitatively using ImageJ software.

PLK1 = molecular target: T2, PLK1 (Homo sapiens, UniProt P53350); assay: Western blot, protein degradation (DC50)
T2 construct: endogenous in cells
T2 sequence (P53350 whole entry): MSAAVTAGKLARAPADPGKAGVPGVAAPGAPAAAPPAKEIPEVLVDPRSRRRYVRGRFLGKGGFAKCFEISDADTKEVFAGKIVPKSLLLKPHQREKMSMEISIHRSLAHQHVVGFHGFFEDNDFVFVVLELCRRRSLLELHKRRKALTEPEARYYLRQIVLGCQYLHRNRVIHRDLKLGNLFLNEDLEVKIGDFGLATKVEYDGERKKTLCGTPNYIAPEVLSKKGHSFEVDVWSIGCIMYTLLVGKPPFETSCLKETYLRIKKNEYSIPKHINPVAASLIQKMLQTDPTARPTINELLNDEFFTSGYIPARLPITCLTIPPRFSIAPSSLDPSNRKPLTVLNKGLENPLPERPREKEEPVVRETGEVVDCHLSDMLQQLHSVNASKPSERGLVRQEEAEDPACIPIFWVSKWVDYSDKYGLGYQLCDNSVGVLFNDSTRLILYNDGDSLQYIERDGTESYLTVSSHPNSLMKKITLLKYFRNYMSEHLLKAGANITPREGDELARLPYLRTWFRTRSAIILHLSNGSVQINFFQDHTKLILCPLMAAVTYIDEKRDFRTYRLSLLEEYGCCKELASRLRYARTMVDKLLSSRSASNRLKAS
Method: as §2

[4] = Homo sapiens, MV4-11, MV4;11 cells
[5] = 24 h, read-out: BRD4 DC50 (nM) (24 h)
[6] = 24 h, read-out: PLK1 DC50 (nM) (24 h)

Row | EC50 [1] | EC50 [2, 4] | Compound | other results
1 | > 1 µM | > 1 µM | CC[C@@H]1c2nncn2-c2cnc(Nc3ccc(C(=O)NCCCOCC(=O)Nc4cccc5c4CN(C4CCC(=O)NC4=O)C5=O)cc3OC)nc2N1C1CCCC1 (stereo partly drawn) [UB-180510] | –
2 | > 1 µM | 0.1 to 1 µM | CC[C@@H]1c2c(C#N)ncn2-c2cnc(Nc3ccc(C(=O)NCCCCOCC(=O)Nc4cccc5c4CN(C4CCC(=O)NC4=O)C5=O)cc3OC)nc2N1C1CCCC1 (stereo partly drawn) [UB-180512] | –
3 | > 1 µM | > 1 µM | CC[C@@H]1c2nncn2-c2cnc(Nc3ccc(C(=O)NCCOCCOCCOCC(=O)N[C@H](C(=O)N4C[C@H](O)C[C@H]4C(=O)NCc4ccc(-c5scnc5C)cc4)C(C)(C)C)cc3OC)nc2N1C1CCCC1 [UB-180516] | –
4 | > 1 µM | > 1 µM | CC[C@@H]1c2c(C#N)ncn2-c2cnc(Nc3ccc(C(=O)NCCOCC(=O)Nc4cccc5c4CN(C4CCC(=O)NC4=O)C5=O)cc3OC)nc2N1C1CCCC1 (stereo partly drawn) [UB-180518] | –
5 | > 1 µM | > 1 µM | CC[C@@H]1c2nncn2-c2cnc(Nc3ccc(C(=O)NCCCC(=O)Nc4cccc5c4CN(C4CCC(=O)NC4=O)C5=O)cc3OC)nc2N1C1CCCC1 (stereo partly drawn) [UB-180521] | –
6 | > 1 µM | 0.01 to 0.1 µM | CC[C@@H]1c2nncn2-c2cnc(Nc3ccc(C(=O)NCCCCOCC(=O)Nc4cccc5c4CN(C4CCC(=O)NC4=O)C5=O)cc3OC)nc2N1C1CCCC1 (stereo partly drawn) [UB-180524] | –
7 | > 1 µM | > 1 µM | CC[C@@H]1c2c(C#N)ncn2-c2cnc(Nc3ccc(C(=O)NCCOCCOCCC(=O)Nc4cccc5c4CN(C4CCC(=O)NC4=O)C5=O)cc3OC)nc2N1C1CCCC1 (stereo partly drawn) [UB-180538] | –
8 | > 1 µM | 0.01 to 0.1 µM | CC[C@@H]1c2nncn2-c2cnc(Nc3ccc(C(=O)NCCCC(=O)N[C@H](C(=O)N4C[C@H](O)C[C@H]4C(=O)NCc4ccc(-c5scnc5C)cc4)C(C)(C)C)cc3OC)nc2N1C1CCCC1 [UB-180539] | –
9 | – | 0.1 to 1 µM | CC[C@@H]1C(=O)N(C)c2cnc(Nc3ccc(C(=O)NCc4cn(CCCN(CCC(=O)Nc5cccc6c5CN(C5CCC(=O)NC5=O)C6=O)C(=O)OCc5ccc(NC(=O)[C@H](CCCNC(N)=O)NC(=O)[C@@H](NC(=O)CCCCCN6C(=O)C=CC6=O)C(C)C)cc5)nn4)cc3OC)nc2N1C1CCCC1 (stereo partly drawn) [UB-180717] | DC50 (BRD4; [5]): 10 to 100 nM; DC50 (PLK1; [6]): 10 to 100 nM

The next lines start with the compound.

Row | Compound | EC50 [1] | EC50 [2, 4] | other results
10 | CC[C@@H]1c2c(C#N)ncn2-c2cnc(Nc3ccc(C(=O)NCCOCCOCCOCC(=O)N[C@H](C(=O)N4C[C@H](O)C[C@H]4C(=O)NCc4ccc(-c5scnc5C)cc4)C(C)(C)C)cc3OC)nc2N1C1CCCC1 [UB-180519] | > 1 µM | 0.01 to 0.1 µM | –
11 | CC[C@@H]1c2nncn2-c2cnc(Nc3ccc(C(=O)NCCOCCOCCOCCC(=O)N[C@H](C(=O)N4C[C@H](O)C[C@H]4C(=O)NCc4ccc(-c5scnc5C)cc4)C(C)(C)C)cc3OC)nc2N1C1CCCC1 [UB-180522] | > 1 µM | 0.1 to 1 µM | –
12 | CC[C@@H]1c2c(C#N)ncn2-c2cnc(Nc3ccc(C(=O)NCCCC(=O)Nc4cccc5c4CN(C4CCC(=O)NC4=O)C5=O)cc3OC)nc2N1C1CCCC1 (stereo partly drawn) [UB-180537] | > 1 µM | 0.1 to 1 µM | –
13 | CC[C@@H]1c2nncn2-c2cnc(Nc3ccc(C(=O)NCCOCC(=O)N[C@H](C(=O)N4C[C@H](O)C[C@H]4C(=O)NCc4ccc(-c5scnc5C)cc4)C(C)(C)C)cc3OC)nc2N1C1CCCC1 [UB-180540] | > 1 µM | > 1 µM | –
14 | CC[C@@H]1C(=O)N(C)c2cnc(Nc3ccc(C(=O)NCCOCCOCCOCCNCCCC(=O)Nc4cccc5c4CN(C4CCC(=O)NC4=O)C5=O)cc3OC)nc2N1C1CCCC1 (stereo partly drawn) [UB-180647] | – | – | EC50 [3]: > 1 µM; EC50 ([2]; MV4;11 cells): 0.01 to 0.1 µM; DC50 (BRD4; 24 h, western blot, read-out: BRD4 DC50 (24 h)): < 10 nM; DC50 (PLK1; 24 h, western blot, read-out: PLK1 DC50 (24 h)): 10 to 100 nM
15 | CC[C@@H]1c2c(C#N)ncn2-c2cnc(Nc3ccc(C(=O)NCc4cn(CCNCCOCC(=O)Nc5cccc6c5CN(C5CCC(=O)NC5=O)C6=O)nn4)cc3OC)nc2N1C1CCCC1 (stereo partly drawn) [UB-180718] | – | 0.1 to 1 µM | DC50 (BRD4; [5]): 100 to 1000 nM; DC50 (PLK1; [6]): 100 to 1000 nM
16 | CC[C@@H]1C(=O)N(C)c2cnc(Nc3ccc(C(=O)NC4CCN(CCOCCNCC(=O)Nc5cccc6c5CN(C5CCC(=O)NC5=O)C6=O)CC4)cc3OC)nc2N1Cc1cnc(C)s1 (stereo partly drawn) [UB-180745] | – | < 0.01 µM | DC50 (BRD4; 6 h, read-out: BRD4 DC50 (nM) (6 h)): < 10 nM; DC50 (BRD4; [5]): < 10 nM; DC50 (PLK1; 6 h, read-out: PLK1 DC50 (nM) (6 h)): > 1000 nM; DC50 (PLK1; [6]): < 10 nM
